One assay concerns genetically obese mice. As to the kind of experiment: Anti-obesity activity: carcass composition after 28 days of daily dosing. The class given is in vivo. As to the method: The compounds were administered by oral gavage in water or carboxymethyl-cellulose suspension to genetically obese mice daily for 28 days. At the end of the time the carcass composition was determined. The results obtained were as follows:-

Assay [1] concerns platelet aggregation in human whole blood. As to the kind of experiment: Collagen-induced platelet aggregation in human whole blood in vitro. The class given is cell-based. Particulars: Final Concentration in Whole Blood 100 μM; collagen EC50 in presence of compound divided by control EC50. As to the method:
Collagen-induced platelet aggregation in human whole blood in vitro.
Collagen added to stirred citrated blood causes platelet aggregation. As the platelets aggregate, the concentration of single platelets falls. […] Inhibitors of aggregation, such as aspirin and dipyridamole, reduce the response to collagen.
Collagen (Hormon-Chemie, Munich) or 154 mM NaCl (control) was added to each aliquot of blood stirred at 1100 rpm in an aggregometer at 37° after 3 mins pre-incubation with compound or appropriate solvent. Aggregates were fixed by addition of 0.5 vol 4.5% formaldehyde or 0.05 vol phosphate-buffered glutaraldehyde. Single platelets were counted electronically. Responses, expressed as per cent fall in platelet count, were obtained to a range of collagen concentrations. The concentration producing 50% maximal effect (EC50) was estimated from log10 concentration-response curves. Dose-ratios were calculated by dividing the EC50 obtained in the presence of compound under test by the control EC50.

For assay [2], the system named is Female CFLP mice. As to the kind of experiment: Effect on energy expenditure and food intake of mice. Particulars: Mus musculus, po, 21 h. The class given is in vivo.
Protocol: Female CFLP mice each weighing approximately 24 g, were given food and water ad lib before and during the experiment. The compounds were dissolved in water by addition of one mole of hydrochloric acid per mole of compound and these solutions were administered orally to each of 12 mice. A further 12 mice were dosed orally with water. The mice were placed in boxes through which air was drawn and the oxygen content of the air leaving the boxes was measured. […] The food intake of the mice was measured over this same period of 21 hours. The results are expressed as a percentage of the mean food intake or rate of energy expenditure of the mice dosed with water.
In assay [3] the test system is Female CFLP mice. As to the kind of experiment: Anti-hyperglycaemic activity: subcutaneous glucose load in fasted mice, area under blood glucose curve. The class given is in vivo. Particulars: 1 μ moles/kg po, glucose 1 g/kg sc, 2 hour period, vs water control. As to the method: Female CFLP mice, each weighing approximately 25 g, were fasted for 24 hours prior to the study. The compounds under study were administered orally as an aqueous solution to each of 6 mice. 6 mice were given water as a control. 30 minutes later a blood sample (20 µl) was obtained from the tail for the analysis of blood glucose. Immediately after taking this blood sample, glucose (1 g/kg body weight) was administered subcutaneously to each mouse. Blood samples were then obtained from each mouse at 30 minute intervals for 120 minutes.
Compounds that produced a significant (P<0.05) reduction of blood glucose, compared with control mice given water, at any time interval, were considered active. The area under the blood glucose curve over the 2 hour period after the administration of the glucose was calculated for each compound and compared with the value for control animals.

The subject of a further assay is Rat hearts. As to the kind of experiment: Cardiac activity: rat hearts perfused by the Langendorff procedure. Particulars: for Emax at 0.01 mg: Rattus norvegicus; for Emax at 0.03 mg: 30 μg added to perfusate, perfused rat heart. As to the method:
Rat hearts were perfused by the Langendorff procedure as follows:- • Hearts were dissected free within 30 seconds of death and reverse perfused via the aorta and coronary vessels with Krebs-Ringer bicarbonate solution (pH 7.4, 37°C) gassed with 95% oxygen:5% carbon dioxide at a flow rate between 8-12 cm^3/minute. Responses were observed after injection of drug dissolved in isotonic saline into the perfusion media.
Results are expressed as a percentage of the maximum response due to salbutamol.

The test system of another assay is rat ear. As to the kind of experiment: Anti-inflammatory activity: croton oil induced inflammation of the rat ear. Particulars: 1.35 mg/rat ear, topical in 1% croton oil in tetrahydrofuran, ear weight after 6 hours; active = significant (5% level) reduction. The class given is in vivo. As to the method: The method used is based on that described by G. Tonelli eta/ (Endocrinology, 77, 625-634, 1965). An inflammation is induced in the rat ear by the application of 50 µl of a 1% solution of croton oil in tetrahydrofuran, test compounds being dissolved in the irritant vehicle. After 6 hours the inflammation is assessed by killing the animals and weighing the ears. Topical anti-inflammatory activity of a compound is generally considered to be shown when a significant (5% level) reduction in ear weight is seen compared to non-drug treated control.

The mark [4] stands for this setting: read-out: Mean Energy Expenditure (%).

Where a name gives a salt, the structure may show the parent alone. Read-outs that look alike come from different tables or passages of the source.

Take `Br.Br.CNCCOc1ccc(CC(C)NCC(O)c2cccc(Br)c2)cc1` (stereo not drawn) [Example 8, N-[2-(4-(2-Methylaminoethoxy)phenyl)-1-methylethyl]-2-hydroxy-2-(3-bromophenyl)ethanamine dihydrobromide]: the “g Lipid/Mouse Treated” value in the assay with genetically obese mice (15.8 mg/kg p.o. daily for 28 days, Control 19.89) came out at 17.91 g Lipid/Mouse. Further, the Dose-Ratio in assay [1] stood at 4.8. In addition, the figures for the response vs control in vivo at 31.6 mg/kg with Female CFLP mice [2] (setting [4]) and in the assay on Female CFLP mice [2] (read-out: Mean Food Intake (%)) were 135% and 97%, respectively. In addition, the “Reduction in area under Blood glucose curve (%)” value (shortened to “Reduction in area … (%)”) in the assay on Female CFLP mice [3] came out at 51%. In addition, the Emax at 0.01 mg was determined as 73% in the assay on Rat hearts (read-out: Heart Rate) and 20% in the assay with Rat hearts (read-out: Heart Tension).

For `CC(Cc1ccc(OCCN2CCCCC2)cc1)NCC(O)c1cccc(Cl)c1` (stereo not drawn) [Example 14, N-[2-(4-(2-(1-Piperidine)ethoxy)phenyl)-1-methylethyl]-2-hydroxy-2-(3-chlorophenyl)ethanamine dihydrochloride], in the assay on genetically obese mice (3.61 mg/kg p.o. daily for 28 days, Control 22.90), the “g Lipid/Mouse Treated” value is 19.83 g Lipid/Mouse. Moreover, the response vs control in vivo at 23.9 mg/kg in the assay with Female CFLP mice [2] (setting [4]) worked out at 141%; in the assay with Female CFLP mice [2] (read-out: Mean Food Intake (%)), 111%. Further, in the assay with Female CFLP mice [3], the “Reduction in area … (%)” value worked out at 68%. Also, the Emax at 0.03 mg with Rat hearts (read-out: Heart Rate) and in the assay with Rat hearts (read-out: Heart Tension) was 0% in each case.

Turning to `CNCCOc1ccc(C[C@@H](C)NC[C@H](O)c2cccc(C(F)(F)F)c2)cc1` [Example 24, N-[2-(4-(2-Methylaminoethoxy)phenyl)-1-methylethyl]-2-hydroxy-2-(3-trifluoromethylphenyl)ethanamine dihydrochloride (RR,SS) diastereoisomer], the outcome with rat ear was Active. The Dose-Ratio in assay [1] turned out to be 5.9. Further, the response vs control in vivo at 6.6 mg/kg in the assay with Female CFLP mice [2] (setting [4]) amounted to 139%; in the assay with Female CFLP mice [2] (read-out: Mean Food Intake (%)), 102%. In addition, the “Reduction in area … (%)” value in the assay with Female CFLP mice [3] worked out at 47%.

For the origin of these results see patent EP0070133B1, “Secondary phenylethanol amines, processes for their preparation and their pharmaceutical application” (priority 1981, dated 1983).
